# Experimental data as given in publication PMC5991599, “Anti‐tumor efficacy of a novel CLK inhibitor via targeting RNA splicing and MYC‐dependent vulnerability” (EMBO Molecular Medicine, 2018).
# Like-named read-outs stand apart in the source and are kept apart here.
# Columns and labels:
# [1] = system: MYC-inducible SK-MEL-28 cells; test: Growth inhibition in MYC-inducible SK-MEL-28 cells; type: cell-based; details: Homo sapiens, read-out: IC50 (nmol/L) (95% CI)
# Procedure: To obtain an MYC‐inducible cell line, SK‐MEL‐28 cells were engineered via stable lentiviral transduction to express an empty pTRIPZ vector (Open Biosystems/GE Healthcare Dharmacon Inc., Lafayette, CO, USA) or a Tet‐inducible promoter‐driven MYC gene. Infected cells were selected with geneticin for 4 days, left to recover for 24 h, and treated with 0.5 μg/ml Dox (Sigma‐Aldrich, St. Louis, MO, USA). U2OS cells were similarly engineered to express an empty pBABE vector (Cell Biolabs, Inc., San Diego, CA, USA) or a MYC‐estrogen receptor (MYC‐ER) transgene via 3 days of puromycin selection followed by treatment with 0.5 μmol/l tamoxifen (Sigma‐Aldrich).
# Silencer Select Pre-designed siRNAs purchased from Ambion (Thermo Fisher
# Scientific) were used. The siRNA ID# and sequence are shown below: […]
# Cell proliferation assay, Caspase-3/7 assay
# Cell proliferation was measured using CellTiter-Glo luminescent cell viability
# assay (Promega, Fitchburg, WI, U.S.A.). Caspase-3/7 activity was measured using
# Caspase-Glo 3/7 Assay Systems (Promega). Luminescence of each well was measured
# using ARVO Light (PerkinElmer Inc., Waltham, MA, U.S.A.). The IC50 value and 95%
# confidential intervals were estimated using GraphPad Prism 5 (GraphPad Software,
# Inc., La Jolla, CA, U.S.A.). […]
# CLK1 = CLK1 (Homo sapiens, UniProt P49759); parameters: method as in Funnell et al, 2017; details: enzymatic assay; ref Funnell et al, 2017; read-out: IC50 (nmol/L) CLK1; cited from earlier work
# CLK1, sequence (P49759 whole entry): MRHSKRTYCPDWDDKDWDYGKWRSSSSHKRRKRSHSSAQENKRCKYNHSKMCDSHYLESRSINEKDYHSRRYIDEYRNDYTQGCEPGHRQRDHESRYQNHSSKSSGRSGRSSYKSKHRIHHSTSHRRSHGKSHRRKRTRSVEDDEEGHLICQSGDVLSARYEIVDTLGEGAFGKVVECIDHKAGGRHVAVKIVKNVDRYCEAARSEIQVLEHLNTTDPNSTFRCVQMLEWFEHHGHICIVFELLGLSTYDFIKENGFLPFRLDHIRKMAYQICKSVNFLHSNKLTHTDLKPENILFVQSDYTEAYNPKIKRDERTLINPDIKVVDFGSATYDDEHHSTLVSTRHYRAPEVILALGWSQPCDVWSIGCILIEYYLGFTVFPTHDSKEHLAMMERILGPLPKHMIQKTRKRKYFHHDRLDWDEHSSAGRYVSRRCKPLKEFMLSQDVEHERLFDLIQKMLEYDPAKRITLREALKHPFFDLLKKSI
# DYRK1A = target: T1, DYRK1A (Homo sapiens, UniProt Q13627); parameters: method as in Funnell et al, 2017; details: enzymatic assay; ref Funnell et al, 2017; read-out: IC50 (nmol/L) DYRK1A; cited from earlier work
# T1 construct: purchased DiscoverX Corporation (Fremont, CA, USA)
# DYRK1B = DYRK1B (Homo sapiens, UniProt Q9Y463); parameters: method as in Funnell et al, 2017; details: enzymatic assay; ref Funnell et al, 2017; read-out: IC50 (nmol/L) DYRK1B; cited from earlier work
# DYRK1B, sequence (Q9Y463 whole entry): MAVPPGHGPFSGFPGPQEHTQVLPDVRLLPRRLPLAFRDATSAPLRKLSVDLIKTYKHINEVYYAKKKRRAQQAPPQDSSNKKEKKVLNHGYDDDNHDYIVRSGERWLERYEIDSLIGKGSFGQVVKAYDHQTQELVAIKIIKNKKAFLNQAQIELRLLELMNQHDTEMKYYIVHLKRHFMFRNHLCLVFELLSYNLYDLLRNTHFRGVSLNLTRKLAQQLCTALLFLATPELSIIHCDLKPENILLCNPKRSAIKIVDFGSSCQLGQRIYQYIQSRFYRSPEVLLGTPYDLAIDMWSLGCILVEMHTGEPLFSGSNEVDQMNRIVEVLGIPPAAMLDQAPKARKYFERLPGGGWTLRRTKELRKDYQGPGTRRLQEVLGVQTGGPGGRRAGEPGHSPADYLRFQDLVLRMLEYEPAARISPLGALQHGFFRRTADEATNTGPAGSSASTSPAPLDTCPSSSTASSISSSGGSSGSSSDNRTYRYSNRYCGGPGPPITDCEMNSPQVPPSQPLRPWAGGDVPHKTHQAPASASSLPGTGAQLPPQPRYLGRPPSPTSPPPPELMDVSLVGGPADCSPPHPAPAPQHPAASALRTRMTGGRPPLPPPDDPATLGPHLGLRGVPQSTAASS
# HCT116 cells = test: Modulation of the 125 T-025-dependent skipped exons (RNA-Seq, MISO); type: cell-based; details: |ΔPSI| > 0.4, T3 AS events from Funnell et al, 2017
# Procedure: The RNA‐Seq was performed at Takara Bio Inc. (Shiga, Japan) or Macrogen, Inc. (Seoul, South Korea) by using HiSeq2000 or HiSeq4000 (Illumina Inc., San Diego, CA, USA). Splicing bioinformatics analysis using MISO and pathway analysis using Cytoscape (Shannon et al, 2003) were performed as previously described (Funnell et al, 2017). Briefly, the BAM alignment files produced by TopHat and the files for AS events (for hg19) provided by MISO were used as inputs. […] For clustering, we used 1,320 splicing events with ΔPSI > 0.4, the BF > 20, and SD of PSI for each splicing event > 0.2. Hierarchical clustering was performed using heatmap3 from the R package.
structure (smiles),measurement,setting,value
CN1CCN(C(=O)C(C)(C)c2ccc(C(=O)Nc3cn4cc(-c5ccncc5)ccc4n3)cc2)CC1 [T3],IC50,"[1]; SK-MEL-28, 72 h, myc - Dox",471 nmol/L
same,IC50,"[1]; SK-MEL-28, 72 h, vector - Dox",459 nmol/L
same,IC50,"[1]; SK-MEL-28, myc + Dox (48 h pretreatment), 72 h",294 nmol/L
same,IC50,"[1]; SK-MEL-28, vector + Dox (48 h pretreatment), 72 h",471 nmol/L
same,IC50,CLK1,0.63 nmol/L
same,IC50,DYRK1A,230 nmol/L
same,IC50,DYRK1B,260 nmol/L
same,share of the 125 T-025-dependent SEs also changed,HCT116 cells; T3 at 500 nmol/l,58.4%
same,share of the 125 T-025-dependent SEs also changed,"HCT116 cells; T3 at 1,000 nmol/l",77.6%
